Data as given in US12115393B2, “Methods for setting parameters of a neurostimulation device and associated devices” (INSTITUT NATIONAL DE LA SANTE ET DE LA RECHERCHE MEDICALE …, priority 2019, dated 2024).

How the values were obtained:
Assay type in all cases: in vivo
[1] = test system: unpredictable chronic mild stress (UCMS) mouse model; experiment: nest-building test in UCMS mice; conditions: 15 mg/kg fluoxetine chronically through drinking water from day 7, tested day 38, score max. 5
Method: (§1) From day 7 on, mice from the Veh (vehicle) and the Flx (fluoxetine) groups were chronically treated through drinking water respectively with water alone (n=12) or 15 mg/kg fluoxetine (n=12).
(§2) The main cohort of fifty-three mice followed the UCMS regimen from day 0 to day 35, as described previously. Briefly, mice were isolated in 24×11×12 cm cages without environmental enrichment and submitted to daily random socio-environmental stressors including: exposition to another mouse bedding, removal of sawdust, contention and light dark cycle perturbations.
(§3) Pharmacological treatments (15 mg/kg fluoxetine) were given from day 7 on to achieve chronic administration at week 5. The chronic ultrasound neurostimulation treatment was given during the fifth week of the UCMS (stressors: 08:00-12:00 AM, treatment: 02:00 PM). […]
(§4) Behaviors were assessed during the dark phase of the light-dark cycle, i.e., the active, awoken phase for the animals. The effects of ultrasound neurostimulation were assessed against those of the fluoxetine treatment from day 38 to day 43 with 1) the nest-building test, 2) the reward-maze test and 3) the open field task.
1. […] After 5 hours in standard condition, the state of the nest, built in cotton, was scored on a predefined scale. […]

[2] = test system: unpredictable chronic mild stress (UCMS) mouse model; experiment: reward-maze test in UCMS mice
Method: as §1, §2, §3, §4
2. […] The latency to reach the reward and its consumption were measured for up to 5 min.

[3] = test system: unpredictable chronic mild stress (UCMS) mouse model; experiment: open-field task in UCMS mice; conditions: 15 mg/kg fluoxetine in drinking water from day 7, tested day 43, p<0.10
Method: as §1, §2
Pharmacological treatments (15 mg/kg fluoxetine) were given from day 7 on to achieve chronic administration at week 5. […]
as §4
3. […] The latency to reach the center area (d=10 cm) and the number of center-crossings were measured for up to 5 min. The movements of the mice were recorded and tracked with the software EthoVision XT (Noldus Information Technology, Netherlands) to generate individual heat maps, color-coded for position frequencies over the duration of the test.

## CNCCC(Oc1ccc(C(F)(F)F)cc1)c1ccccc1 (stereo not shown) [fluoxetine]
[1]
  nest-building score (ability to build a nest within 5 hours): no effect
[2]; 15 mg/kg fluoxetine in drinking water from day 7, tested day 40, Veh vs Flx p=0.033
  consumption of the reward: modified
[2]; 15 mg/kg fluoxetine in drinking water from day 7, tested day 40, Veh vs Flx p=0.042
  latency to travel across the apparatus and reach the food reward: decreased three-fold
[3]
  number of center-crossings: did not significantly affect
